Read-outs that look alike come from different tables or passages of the source.
T1: FLhPIF1 (Homo sapiens, UniProt Q9H611)
T1 construct: Full length human PIF1 (FLhPIF1) was expressed and purified as a His-SUMO fusion; His-SUMO (cleaved yes); made in house; 'following similar protocols' to hPIF1HD (ArcticExpress BL21(DE3) E. coli)
T1 sequence (Q9H611 1-641): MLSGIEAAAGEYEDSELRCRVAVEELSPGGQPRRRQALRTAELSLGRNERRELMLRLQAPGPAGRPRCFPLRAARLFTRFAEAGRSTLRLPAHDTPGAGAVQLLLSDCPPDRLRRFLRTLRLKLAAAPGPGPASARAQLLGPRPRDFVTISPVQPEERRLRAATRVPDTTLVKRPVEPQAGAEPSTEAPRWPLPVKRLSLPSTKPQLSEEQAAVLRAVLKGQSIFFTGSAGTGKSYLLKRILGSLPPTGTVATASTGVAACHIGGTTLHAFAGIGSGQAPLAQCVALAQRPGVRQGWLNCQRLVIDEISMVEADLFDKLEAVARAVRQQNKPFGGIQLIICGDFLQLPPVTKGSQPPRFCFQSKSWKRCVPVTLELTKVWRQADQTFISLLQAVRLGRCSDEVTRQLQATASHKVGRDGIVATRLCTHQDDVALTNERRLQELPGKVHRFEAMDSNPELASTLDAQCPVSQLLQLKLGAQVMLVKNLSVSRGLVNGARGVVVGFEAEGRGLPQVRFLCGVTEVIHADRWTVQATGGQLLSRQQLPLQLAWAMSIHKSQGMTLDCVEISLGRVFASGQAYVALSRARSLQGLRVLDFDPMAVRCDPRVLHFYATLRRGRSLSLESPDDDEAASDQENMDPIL

T2: human UPF1 (hUPF1) helicase (Homo sapiens, UniProt Q92900)
T2 construct: Full-length human UPF1 helicase was expressed and purified as described previously; made in house
T2 sequence (Q92900 1-1129): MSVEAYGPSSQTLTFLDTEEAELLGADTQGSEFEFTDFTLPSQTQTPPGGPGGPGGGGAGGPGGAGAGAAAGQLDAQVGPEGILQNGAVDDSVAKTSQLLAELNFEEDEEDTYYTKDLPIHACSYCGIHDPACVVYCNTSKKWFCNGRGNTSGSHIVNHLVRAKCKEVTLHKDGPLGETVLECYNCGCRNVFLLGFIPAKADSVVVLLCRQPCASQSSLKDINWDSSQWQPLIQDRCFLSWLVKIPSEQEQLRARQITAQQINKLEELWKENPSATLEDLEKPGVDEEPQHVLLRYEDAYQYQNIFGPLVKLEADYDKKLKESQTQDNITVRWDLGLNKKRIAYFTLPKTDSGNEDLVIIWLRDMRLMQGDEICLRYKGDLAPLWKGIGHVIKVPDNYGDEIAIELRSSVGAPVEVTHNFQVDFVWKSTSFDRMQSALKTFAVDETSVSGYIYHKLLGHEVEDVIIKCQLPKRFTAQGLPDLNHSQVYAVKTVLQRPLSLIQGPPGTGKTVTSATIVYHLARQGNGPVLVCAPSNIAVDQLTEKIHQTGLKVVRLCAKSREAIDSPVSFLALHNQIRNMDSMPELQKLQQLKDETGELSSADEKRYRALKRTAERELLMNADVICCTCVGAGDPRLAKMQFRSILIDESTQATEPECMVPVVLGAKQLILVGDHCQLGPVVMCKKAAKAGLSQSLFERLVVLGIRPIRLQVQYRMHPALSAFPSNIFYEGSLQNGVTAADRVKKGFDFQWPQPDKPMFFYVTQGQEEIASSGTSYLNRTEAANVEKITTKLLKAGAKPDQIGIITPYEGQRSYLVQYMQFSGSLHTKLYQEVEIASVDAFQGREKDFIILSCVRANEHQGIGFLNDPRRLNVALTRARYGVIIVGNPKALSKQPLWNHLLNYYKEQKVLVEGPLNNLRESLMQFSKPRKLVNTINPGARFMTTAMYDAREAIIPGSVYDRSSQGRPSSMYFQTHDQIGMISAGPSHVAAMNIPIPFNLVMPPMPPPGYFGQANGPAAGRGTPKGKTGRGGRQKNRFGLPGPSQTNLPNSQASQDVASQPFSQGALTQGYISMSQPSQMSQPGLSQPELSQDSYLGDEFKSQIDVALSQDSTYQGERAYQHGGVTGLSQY

T3: hPIF1HD wild type (Homo sapiens, UniProt Q9H611 206-620)
T3 sequence: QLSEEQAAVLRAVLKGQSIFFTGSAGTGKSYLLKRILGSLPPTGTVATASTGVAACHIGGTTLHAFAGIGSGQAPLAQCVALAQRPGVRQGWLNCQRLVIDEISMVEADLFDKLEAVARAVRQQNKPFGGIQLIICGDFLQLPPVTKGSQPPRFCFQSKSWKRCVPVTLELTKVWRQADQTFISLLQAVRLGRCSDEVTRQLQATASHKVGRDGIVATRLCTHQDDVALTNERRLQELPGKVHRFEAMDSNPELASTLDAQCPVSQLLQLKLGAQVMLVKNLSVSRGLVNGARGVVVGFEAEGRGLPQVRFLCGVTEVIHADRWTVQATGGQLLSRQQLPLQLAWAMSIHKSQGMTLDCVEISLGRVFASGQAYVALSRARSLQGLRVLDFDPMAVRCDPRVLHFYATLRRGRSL


Columns and labels:
FLhPIF1 = molecular target: T1, FLhPIF1; test: helicase assay after pre-incubation of SMI with FLhPIF1; format: biochemical; details: for IC50: read-out: IC50 for dsDNA unwinding by FLhPIF1 following pre-incubation
Description: Helicase activity was assayed using a radiometric strand displacement assay employing a partially single- and double-stranded substrate generated by annealing two oligonucleotides: 5′-(T)55-[…] and 5′-[…], as described previously ([19],[28]). The reaction buffer was 20 mM HEPES–NaOH pH 7.5, 20 mM NaCl, 5.5 mM MgCl2, 5 mM ATP, 1 mM DTT and 0.1 mg/ml BSA. SMIs (100 mM stocks in DMSO) were assayed at up to 2 mM without pre-incubation with FLhPIF1, unless otherwise stated. Reactions (0.1 nM substrate) were incubated at 37°C for 20 min, followed by addition of 0.2 volumes of 120 mM EDTA, 0.6% (w/v) SDS, 60% (v/v) glycerol and 0.1% (w/v) bromophenol blue before resolution of products by polyacrylamide gel electrophoresis (8%, 19:1 acrylamide:bis-acrylamide), 1× TBE (90 mM Tris–borate/2 mM EDTA, pH 8.3 with 0.05% (w/v) SDS buffer). Dried gels were exposed to phosphorimaging plates (Fujifilm) for imaging and quantification (Fuji FLA3000, image gauge V3.3 software). IC50 values were analysed by non-linear regression (variable slope) using GraphPad Prism.
First, we screened inhibitory activity of the SMIs listed in Table 1, following incubation of 100 nM FLhPIF1 with 100 μM SMI for 1 h at 22°C in the absence of substrates (ATP and DNA), before a 1:10 dilution into helicase reactions. […] Next, compounds 2, 5, 6 and 11, along with 4 and 1D were selected for analysis in a pre-incubation time-course (100 nM FLhPIF1, 100 μM SMI), up to 3 h before assaying helicase activity.
(§1) In parallel, IC50 values for inhibition of human UPF1 (hUPF1) helicase activity by the SMIs were also determined under the same conditions. UPF1-like SF1B helicases are the most closely related family of helicases to PIF1, with significant structural and mechanistic similarity ([52]).
(§2) Figure 6. SMI IC50 for dsDNA unwinding determined following pre-incubation. SMIs (0.0078–2 mM SMI) were incubated for 2 h at 22°C (100 nM FLhPIF1 or hUPF1) before dilution (1:10) in the standard helicase assay (0.1 nM DNA substrate). For 1D and 6, structures, electrophoresis of FLhPIF1 reaction product and graphs for IC50 value determination are shown. The graphed data include the activity of SMIs towards hUPF1 and IC50 values obtained are given. See Supplementary Figure S14 for the complete data set. TEXT PRINTED IN THE PICTURE: 1D: IC50 (μM): PIF1: 978 ± 221; IC50 (μM): UPF1: N.D. | 6: IC50 (μM): PIF1: 79.4 ± 16; IC50 (μM): UPF1: 1750 ± 426

[1] = molecular target: T2, human UPF1 (hUPF1) helicase; test: helicase assay after pre-incubation of SMI with hUPF1; format: biochemical; details: 2 h pre-incubation
Description: Full-length human UPF1 helicase was expressed and purified as described previously ([36]).
as §1, §2
Supplementary Figure 14. IC50 DNA unwinding determined following 2 hours pre-incubation. […] The assay procedure and reaction conditions for each helicase were identical (see methods, main manuscript). The figure complements main manuscript Figure 6. […] The reason for this is unclear.

hPIF1HD wild type = molecular target: T3, hPIF1HD wild type; test: EMSA; 5 mM AMP-PNP, 5.5 mM MgCl2; 2 nM protein, 0.25 nM DNA; no inhibitor; 20 mM HEPES-NaOH pH 7.5, 20 mM NaCl, 5.5 mM MgCl2, 5 mM AMP-PNP, 1 mM DTT, 0.1 mg/ml BSA; 0.25 nM DNA; binding temperature not stated explicitly (helicase assay conditions 37 C); 5% PAGE, 0.25x TBE; details: protein: recombinant; tags: N-terminal His6 removed; GSRM cloning residues remain; label: 5'-32P; single strand

Row | IC50 (FLhPIF1; 2 h pre-incubation at 22°C with 100 nM FLhPIF1, then 1:10 dilution into helicase assay) | IC50 (FLhPIF1; 2 h pre-incubation at 22°C) | increase in inhibition of FLhPIF1 DNA unwinding after pre-incubation (FLhPIF1; 3 h pre-incubation, 100 nM FLhPIF1, 100 μM SMI) | inhibition of hUPF1 helicase [1] | Molecule | binding result (hPIF1HD wild type)
1 | 978 ± 221 µM | ~1000 µM | 5–10% | minimal inhibition | CC(=O)Nc1ccc(-c2csc(N)n2)cc1 [Compound 1D] | 
2 |  |  |  |  | oligo d(T)55 (ssDNA) DNA: TTTTTTTTTTTTTTTTTTTTTTTTTTTTTTTTTTTTTTTTTTTTTTTTTTTTTTT | binds

From publication PMC11551755, “Structure-based discovery of first inhibitors targeting the helicase activity of human PIF1” (Nucleic Acids Research, 2024)
